{"source": "patent US11547301B2", "about": "“Methods for collecting and testing bacteria containing samples from within the gastrointestinal tract” (priority 2016, dated 2023)", "key": {"[1]": {"tested_on": "Propionibacterium acnes and Staphylococcus epidermidis", "settings": "aerobic and anaerobic organisms; cited from earlier work"}, "human IL-6": {"target": "human IL-6 (Homo sapiens, UniProt P05231)", "sequence (P05231 30-212)": "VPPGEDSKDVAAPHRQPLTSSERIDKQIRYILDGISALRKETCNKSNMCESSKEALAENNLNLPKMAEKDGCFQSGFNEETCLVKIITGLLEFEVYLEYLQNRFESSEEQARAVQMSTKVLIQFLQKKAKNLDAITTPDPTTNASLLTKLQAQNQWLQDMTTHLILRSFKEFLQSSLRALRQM", "settings": "cited from earlier work"}, "[2]": {"tested_on": "Gram-positive and Gram-negative bacteria", "settings": "e.g., Escherichia coli, Proteus mirabilis, Pseudomonas aeruginosa, Staphylococcus and Streptococcus species; cited from earlier work"}, "[3]": {"tested_on": "dermatophytes, yeasts, moulds and other fungi", "settings": "cited from earlier work"}, "[4]": {"settings": "numerous murine models; cited from earlier work"}, "[5]": {"tested_on": "Staphylococcus epidermidis ATCC 12228", "assay": "OD (600 nm) of incubated bacterial samples under simulated GI conditions (bile, mucin, pH, yeast), 4 hour incubation", "assay_type": "cell-based", "settings": "Yeast Amphotericin B", "experimental": "(§1) Experiments were performed in order to simulate an ingestible device that contains sterile media that is inoculated with a sample of fluid from the GI tract and incubated in transit. […] The samples were also incubated under conditions of shear forces and temperature that simulate conditions of an ingestible device in transit within the GI tract.\n(§2) The assay utilized 50 μL, sample volumes, under shear (110 rpm) and at body temperature (37° C.) over a 4 hour incubation period to simulate transit of an ingestible device within the GI tract. […] Experiments were conducted in quintuplicate."}, "[6]": {"tested_on": "Escherichia coli ATCC 25922", "assay": "OD (600 nm) of incubated bacterial samples under simulated GI conditions (bile, mucin, pH, yeast), 4 hour incubation", "assay_type": "cell-based", "settings": "Yeast+Amphotericin B", "experimental": "as §1, §2"}, "C. albicans": {"tested_on": "C. albicans", "assay": "Fungal contamination of incubated OD assay, with or without anti-fungal recovery media", "assay_type": "cell-based", "settings": "TSB containing 2.5 mg/L Amphotericin B"}}}
{"compound": "O=C(O)CCCCCCCC(=O)O", "note": "[Azelaic acid]", "values": [{"measurement": "antibacterial effects", "setting": "[1]", "result": "antibacterial effects"}]}
{"compound": "siltuximab: chimeric, human-murine, immunoglobulin (Ig) Gκ mAb that binds and neutralizes human IL-6", "values": [{"measurement": "binding and neutralization of human IL-6", "setting": "human IL-6", "result": "high affinity and specificity"}]}
{"compound": "Cc1cc(C2CCCCC2)n(O)c(=O)c1", "note": "[Ciclopirox]", "values": [{"measurement": "activity against bacteria", "setting": "[2]", "result": "effective"}, {"measurement": "antifungal activity", "setting": "[3]", "result": "fungicidal, fungistatic and sporicidal activity"}]}
{"compound": "L-glutamic acid polymer with L-alanine, L-lysine and L-tyrosine, acetate (salt) [Glatiramer acetate]", "values": [{"measurement": "inflammation and pathological manifestations of IBD", "setting": "[4]", "result": "reduce inflammation and ameliorate the pathological manifestations"}]}
{"compound": "C[C@@H]1[C@H](O)[C@@H](C)/C=C/C=C/C=C/C=C/C=C/C=C/C=C/[C@H](O[C@@H]2O[C@H](C)[C@@H](O)[C@H](N)[C@@H]2O)C[C@@H]2O[C@](O)(C[C@@H](O)C[C@@H](O)[C@H](O)CC[C@@H](O)C[C@@H](O)CC(=O)O[C@H]1C)C[C@H](O)[C@H]2C(=O)O", "note": "[amphotericin B, Amphotericin B]", "values": [{"measurement": "OD (600 nm) Mean", "setting": "[5]; SE 10^3 initial concentration", "result": 0.0425}, {"measurement": "OD (600 nm) Mean", "setting": "[5]; SE 10^4 initial concentration", "result": 0.0437}, {"measurement": "OD (600 nm) Mean", "setting": "[5]; SE 10^5 initial concentration", "result": 0.0454}, {"measurement": "OD (600 nm) Mean", "setting": "[5]; SE 10^6 initial concentration", "result": 0.0611}, {"measurement": "OD (600 nm) Mean", "setting": "[5]; SE 10^7 initial concentration", "result": 0.0971}, {"measurement": "OD (600 nm) Mean", "setting": "[6]; EC 10^3 initial concentration", "result": 0.0410}, {"measurement": "OD (600 nm) Mean", "setting": "[6]; EC 10^4 initial concentration", "result": 0.0432}, {"measurement": "OD (600 nm) Mean", "setting": "[6]; EC 10^5 initial concentration", "result": 0.0562}, {"measurement": "OD (600 nm) Mean", "setting": "[6]; EC 10^6 initial concentration", "result": 0.1038}, {"measurement": "OD (600 nm) Mean", "setting": "[6]; EC 10^7 initial concentration", "result": 0.1274}, {"measurement": "Effect on background fungal growth (plate counts and optical density)", "setting": "C. albicans", "result": "reduced the background fungal growth"}]}
